Literature values, collected in patent publication US20180015074A1, “USE OF MTOR INHIBITORS TO PREVENT AND REGRESS EDHESIONS AND FIBROSIS” (THE BOARD OF REGENTS OF THE UNIVERSITY OF TEXAS SYSTEM, priority 2015, published 2018).
Like-named read-outs stand apart in the source and are kept apart here.

Key:
[1] = tested on: post-surgical adhesions; settings: daily IP injection immediately following surgery, rat
[2] = tested on: wound strength in the intestine and abdominal fascia

SMILES: CO[C@H]1C[C@@H]2CC[C@@H](C)[C@@](O)(O2)C(=O)C(=O)N2CCCC[C@H]2C(=O)O[C@H]([C@H](C)C[C@@H]2CC[C@@H](O)[C@H](OC)C2)CC(=O)[C@H](C)/C=C(\C)[C@@H](O)[C@@H](OC)C(=O)[C@H](C)C[C@H](C)/C=C/C=C/C=C/1C [rapamycin, (3S,6R,7E,9R,10R,12R,14S,15E,17E,19E,21S,23S,26R,27R,34aS)-9,10,12,13,14,-21,22,23,24,25,26,27,32,33,34,34a-hexadecahydro-9,27-dihydroxy-3-[(1R)-2-[-(1S,3R,4R)-4-hydroxy-3-methoxycyclohexyl]-1-methylethyl]-10,21-dimethoxy-6,8,12,14,20,26-hexamethyl-23,27-epoxy-3H-pyrido[2,1-c][1,4]oxaazacyclohent-ria-contine-1,5,11,28,29(4H,6H,31H)-pentone]
- wound infections [1]: higher rate of wound infections
- wound strength ([2]; administration delayed 2-4 days post-surgery): ameliorated this loss
- wound strength ([2]; administration immediately following surgery): serious loss of wound strength
